Columns and labels:
[1] = molecular target: T1, bovine serum albumin (BSA) (Bos taurus, UniProt P02769); assay: ProteOn XPR36 SPR array biosensor binding to immobilized BSA; details: for binding to the immobilized BSA (sensorgram): SPR, PBS-T buffer pH 7.4, 25 °C; for koff / kon: bovine, pH 7.4
Procedure: The GLH sensor chip, consisting of glass prisms coated with gold and an alginate-based layer, was an ideal choice for examining protein-small molecule interactions. The chip was initialized with 50% glycerol for several minutes prior to use.
Following initialization, the GLH sensor chip was washed with 0.5% SDS, 50 mM NaOH and 100 mM HCl, respectively, for 1 min each, at a flow rate of 100 µL/min. PBS-T buffer (10 mM sodium phosphate, 150 mM NaCl, and 0.005% Tween 20, pH 7.4) was then injected in three pulses for baseline stabilization.
One of the six channels was activated with a mixture of EDC (40 mM) and sulfo-NHS (10 mM) in the horizontal direction for 3 min, at a flow rate of 30 µL/min. BSA (2 mg/mL) was diluted to 300 nM in 10 mM sodium acetate (pH 4.0) and immobilized on the channel for 5 min, at a flow rate of 30 µL/min. Next, the channel was blocked by injection of 1 M ethanolamine-HCl for 5 min. […] Baseline equilibration was performed by multiple washes with running buffer (PBS-T) across the chip surface for 1 h.
Each compound was tested at six concentrations using a two-fold dilution series. Gradient concentrations of each compound were simultaneously injected over the BSA-immobilized surface at a flow rate of 30 µL/min in the vertical direction, where the association and dissociation times were 80 s and 60 s, respectively. All interaction analyses were performed at 25 °C.
All sensorgrams for protein binding were collected, processed, and analyzed using the ProteOn Manager software. We utilized two types of reference sources, the standard blank buffer reference, and interspot reference, which was the average response before and after each interaction spot to correct for nonspecific binding. The target protein was washed off in the dissociation phase, which caused baseline drift, although real-time injection of a blank reference can completely correct this baseline drift by subtracting artifacts in real time. The dual references were both subtracted from the interaction spot data to correct for any bulk shifts due to baseline drift and nonspecific binding. Finally, the data for each compound collected over the same target protein were globally fit to a Langmuir 1:1 binding model with a global ka and kd, where ka is the association rate constant and kd is the dissociation rate constant for the protein-small molecule binding. The ratio of (kd/ka) indicated the value for the equilibrium dissociation constant (KD).

[2] = molecular target: T1, bovine serum albumin (BSA); parameters: I (residues 1–183), II (184–376), III (377–583); purchased Sigma-Aldrich; method as in doi:10.1016/j.molstruc.2008.01.013; details: under physiological conditions; cited from earlier work

T1 sequence (P02769 25-607): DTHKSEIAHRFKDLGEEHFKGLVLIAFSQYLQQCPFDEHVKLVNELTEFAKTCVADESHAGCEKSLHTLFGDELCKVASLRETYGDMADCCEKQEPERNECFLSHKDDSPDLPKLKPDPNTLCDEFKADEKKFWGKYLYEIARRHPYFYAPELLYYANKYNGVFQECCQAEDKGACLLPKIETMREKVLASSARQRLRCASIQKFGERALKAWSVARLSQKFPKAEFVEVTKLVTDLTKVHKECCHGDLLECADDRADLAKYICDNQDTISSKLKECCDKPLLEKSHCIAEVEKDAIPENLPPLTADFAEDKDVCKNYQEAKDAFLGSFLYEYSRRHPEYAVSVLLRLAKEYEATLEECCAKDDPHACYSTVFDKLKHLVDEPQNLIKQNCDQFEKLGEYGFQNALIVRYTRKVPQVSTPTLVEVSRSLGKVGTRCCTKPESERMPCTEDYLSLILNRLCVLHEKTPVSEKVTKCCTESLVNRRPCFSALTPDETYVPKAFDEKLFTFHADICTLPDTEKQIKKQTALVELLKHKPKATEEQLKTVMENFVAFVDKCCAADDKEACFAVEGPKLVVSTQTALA

Kd [1]	binding to the immobilized BSA (sensorgram) [1]	koff [1]	kon [1]	difference in affinity for BSA between weakest and strongest binding compound ([1]; doxorubicin (weakest) versus salvianolic acid B (strongest))	Compound	binding to BSA via spectroscopic investigation [2]
510 ± 250 µM	–	–	–	–	O=C(O)c1cc(O)c(O)c(O)c1 [gallic acid, Gallic acid]	–
740 ± 360 µM	able to reversibly bind	0.09 ± 0.02 s⁻¹	149 M⁻¹ s⁻¹	–	C[C@@H]1O[C@@H](O[C@@H]2[C@@H](O)[C@H](OCCc3ccc(O)c(O)c3)O[C@H](CO)[C@H]2OC(=O)/C=C/c2ccc(O)c(O)c2)[C@H](O)[C@H](O)[C@H]1O [acteoside, Acteoside]	–
–	no such binding	–	–	–	OC[C@H]1O[C@@H](OCCc2ccc(O)cc2)[C@H](O)[C@@H](O)[C@@H]1O [salidroside, Salidroside]	could bind to BSA
2560 ± 430 µM	able to reversibly bind	1.96 ± 0.2 s⁻¹	784 M⁻¹ s⁻¹	–	CC[C@]1(O)C[C@H]2CN(CCc3c([nH]c4ccccc34)[C@@](C(=O)OC)(c3cc4c(cc3OC)N(C=O)[C@H]3[C@@](O)(C(=O)OC)[C@H](OC(C)=O)[C@]5(CC)C=CCN6CC[C@]43[C@@H]65)C2)C1 [vincristine, Vincristine, reference compound]	–
–	able to reversibly bind	0.73 ± 0.03 s⁻¹	2 M⁻¹ s⁻¹	greater than 1000 fold	COc1cccc2c1C(=O)c1c(O)c3c(c(O)c1C2=O)C[C@@](O)(C(=O)CO)C[C@@H]3O[C@H]1C[C@H](N)[C@H](O)[C@H](C)O1 [doxorubicin, Doxorubicin, reference compound]	–

Compound	Kd [1]	binding to the immobilized BSA (sensorgram) [1]	koff [1]	kon [1]	difference in affinity for BSA between weakest and strongest binding compound ([1]; doxorubicin (weakest) versus salvianolic acid B (strongest))	binding to BSA via spectroscopic investigation [2]
O=C(/C=C/c1ccc(O)c2c1[C@H](C(=O)O[C@H](Cc1ccc(O)c(O)c1)C(=O)O)[C@@H](c1ccc(O)c(O)c1)O2)O[C@H](Cc1ccc(O)c(O)c1)C(=O)O [salvianolic acid B, Salvianolic acid B]	230 ± 70 µM	able to reversibly bind	0.59 ± 0.24 s⁻¹	2500 M⁻¹ s⁻¹	–	–
Echinacoside	–	able to reversibly bind	–	–	–	–

Source: article PMC6274227, “Interactions of Bovine Serum Albumin with Anti-Cancer Compounds Using a ProteOn XPR36 Array Biosensor and Molecular Docking” (Molecules, 2016)
